# Read-outs that look alike come from different tables or passages of the source.
# Legend:
# Experiment in all cases: biochemical
# Parameters in all cases: Eurofins KinaseProfiler full panel at Km ATP, residual kinase activity (%) relative to DMSO
# Flt4(h) = Flt4(h) (Homo sapiens, UniProt P35916)
# Summary of the method: (§1)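 Two 10 µM single-concentration screens were run: a competition-binding screen, in which DNA-tagged kinase bound to immobilized ligands was quantified by qPCR, and a radiometric activity panel at Km ATP. Each is expressed as residual kinase activity (%).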
# SNRK(h) = target: T1, SNRK(h) (Homo sapiens, UniProt Q9NRH2)
# T1 sequence (Q9NRH2 1-765): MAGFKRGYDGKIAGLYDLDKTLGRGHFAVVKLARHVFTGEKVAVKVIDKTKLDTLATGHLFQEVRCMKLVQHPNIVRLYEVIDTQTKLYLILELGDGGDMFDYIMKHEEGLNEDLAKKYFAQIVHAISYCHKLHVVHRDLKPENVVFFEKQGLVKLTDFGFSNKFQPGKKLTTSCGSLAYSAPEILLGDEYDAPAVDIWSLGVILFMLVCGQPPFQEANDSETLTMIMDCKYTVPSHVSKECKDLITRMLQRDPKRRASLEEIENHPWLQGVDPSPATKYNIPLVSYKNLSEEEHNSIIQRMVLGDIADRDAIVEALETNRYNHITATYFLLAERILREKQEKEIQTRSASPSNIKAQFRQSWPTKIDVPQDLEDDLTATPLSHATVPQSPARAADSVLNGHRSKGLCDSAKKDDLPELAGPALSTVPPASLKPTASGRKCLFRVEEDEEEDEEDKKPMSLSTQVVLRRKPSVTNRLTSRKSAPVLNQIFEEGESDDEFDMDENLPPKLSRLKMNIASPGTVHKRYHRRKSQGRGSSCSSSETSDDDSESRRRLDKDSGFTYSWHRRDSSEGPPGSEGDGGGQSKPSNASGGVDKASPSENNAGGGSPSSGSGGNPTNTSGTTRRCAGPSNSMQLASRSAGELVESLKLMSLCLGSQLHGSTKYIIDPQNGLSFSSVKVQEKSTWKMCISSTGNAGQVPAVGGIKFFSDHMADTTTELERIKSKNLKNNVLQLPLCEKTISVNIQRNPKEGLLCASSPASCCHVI
# Summary of the method: as §1
# [1] = target: T2, PI3 Kinase (p110a(E545K)/p85a)(h) (Homo sapiens, UniProt P42336, E545K)
# T2 construct: gene PIK3CA
# T2 sequence (P42336 whole entry E545K): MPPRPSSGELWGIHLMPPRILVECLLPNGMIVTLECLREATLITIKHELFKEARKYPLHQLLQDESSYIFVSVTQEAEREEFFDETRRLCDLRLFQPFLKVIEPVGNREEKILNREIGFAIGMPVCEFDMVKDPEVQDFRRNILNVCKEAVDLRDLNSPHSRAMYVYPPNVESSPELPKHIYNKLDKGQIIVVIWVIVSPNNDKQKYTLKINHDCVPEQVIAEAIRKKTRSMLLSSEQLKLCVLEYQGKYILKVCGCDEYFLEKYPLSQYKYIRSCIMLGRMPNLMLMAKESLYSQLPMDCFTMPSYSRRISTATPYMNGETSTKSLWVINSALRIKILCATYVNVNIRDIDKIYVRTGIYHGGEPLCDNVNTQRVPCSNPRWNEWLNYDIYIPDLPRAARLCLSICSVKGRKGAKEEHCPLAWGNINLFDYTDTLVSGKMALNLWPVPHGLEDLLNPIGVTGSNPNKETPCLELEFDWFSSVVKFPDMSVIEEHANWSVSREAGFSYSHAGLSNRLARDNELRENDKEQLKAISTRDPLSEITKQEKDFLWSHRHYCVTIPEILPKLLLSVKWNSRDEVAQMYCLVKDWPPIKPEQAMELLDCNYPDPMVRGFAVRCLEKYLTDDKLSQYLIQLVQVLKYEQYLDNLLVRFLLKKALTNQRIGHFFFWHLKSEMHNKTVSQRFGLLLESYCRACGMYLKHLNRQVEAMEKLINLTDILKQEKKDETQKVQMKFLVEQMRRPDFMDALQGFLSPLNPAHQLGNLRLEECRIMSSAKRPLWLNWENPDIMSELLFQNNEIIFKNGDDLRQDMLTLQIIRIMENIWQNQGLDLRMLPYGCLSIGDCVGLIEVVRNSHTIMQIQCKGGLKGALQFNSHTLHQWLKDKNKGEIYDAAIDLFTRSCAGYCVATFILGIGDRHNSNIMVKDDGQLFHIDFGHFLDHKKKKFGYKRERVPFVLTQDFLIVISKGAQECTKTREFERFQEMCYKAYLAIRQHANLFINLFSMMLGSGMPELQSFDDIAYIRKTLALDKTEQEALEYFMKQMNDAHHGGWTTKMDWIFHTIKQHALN
# T2 sequence (P27986 whole entry partner): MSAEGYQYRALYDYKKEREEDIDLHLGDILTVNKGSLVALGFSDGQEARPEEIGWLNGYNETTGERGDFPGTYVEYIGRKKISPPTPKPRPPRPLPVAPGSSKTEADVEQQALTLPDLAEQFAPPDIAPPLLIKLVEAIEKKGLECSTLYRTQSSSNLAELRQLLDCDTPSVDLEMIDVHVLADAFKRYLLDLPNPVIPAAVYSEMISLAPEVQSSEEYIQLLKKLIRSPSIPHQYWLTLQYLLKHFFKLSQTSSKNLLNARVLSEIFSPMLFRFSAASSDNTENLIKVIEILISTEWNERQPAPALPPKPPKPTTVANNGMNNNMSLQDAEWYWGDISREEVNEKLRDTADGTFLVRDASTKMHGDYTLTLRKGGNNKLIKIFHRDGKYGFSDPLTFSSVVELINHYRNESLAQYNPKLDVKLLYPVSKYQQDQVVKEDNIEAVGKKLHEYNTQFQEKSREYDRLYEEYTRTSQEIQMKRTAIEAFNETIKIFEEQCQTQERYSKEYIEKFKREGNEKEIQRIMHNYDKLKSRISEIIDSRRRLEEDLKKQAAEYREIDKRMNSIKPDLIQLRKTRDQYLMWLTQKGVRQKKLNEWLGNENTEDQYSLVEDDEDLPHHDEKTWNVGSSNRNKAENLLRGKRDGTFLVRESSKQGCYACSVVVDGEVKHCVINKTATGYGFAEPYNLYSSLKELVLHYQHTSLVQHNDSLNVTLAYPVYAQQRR
# Summary of the method: as §1
# c-RAF(h) = target: T3, c-RAF(h) (Homo sapiens, UniProt P04049)
# T3 construct: gene RAF1
# Summary of the method: as §1
# Wee1(h) = Wee1(h) (Homo sapiens, UniProt P30291)
# Chain of Wee1(h) (P30291 whole entry): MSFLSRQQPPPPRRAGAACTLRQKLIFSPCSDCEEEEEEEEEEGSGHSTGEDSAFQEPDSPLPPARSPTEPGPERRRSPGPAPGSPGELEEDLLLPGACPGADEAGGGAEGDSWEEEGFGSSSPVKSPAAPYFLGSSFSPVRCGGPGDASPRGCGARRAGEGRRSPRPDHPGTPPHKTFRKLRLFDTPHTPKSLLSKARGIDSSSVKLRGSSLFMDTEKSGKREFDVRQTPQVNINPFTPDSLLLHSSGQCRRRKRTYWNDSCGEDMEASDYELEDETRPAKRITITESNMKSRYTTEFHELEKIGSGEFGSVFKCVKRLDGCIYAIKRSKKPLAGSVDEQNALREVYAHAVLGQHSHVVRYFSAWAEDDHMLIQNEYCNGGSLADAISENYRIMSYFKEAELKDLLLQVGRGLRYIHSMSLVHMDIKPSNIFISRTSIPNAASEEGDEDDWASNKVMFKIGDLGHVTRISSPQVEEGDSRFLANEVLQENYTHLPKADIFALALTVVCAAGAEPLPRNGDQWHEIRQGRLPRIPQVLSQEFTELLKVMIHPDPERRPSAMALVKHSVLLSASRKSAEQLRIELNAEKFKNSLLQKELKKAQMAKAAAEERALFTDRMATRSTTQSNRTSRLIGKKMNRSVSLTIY
# Summary of the method: as §1
# EphA8(h) = target: T4, EphA8(h) (Homo sapiens, UniProt P29322)
# T4 sequence (P29322 1-1005): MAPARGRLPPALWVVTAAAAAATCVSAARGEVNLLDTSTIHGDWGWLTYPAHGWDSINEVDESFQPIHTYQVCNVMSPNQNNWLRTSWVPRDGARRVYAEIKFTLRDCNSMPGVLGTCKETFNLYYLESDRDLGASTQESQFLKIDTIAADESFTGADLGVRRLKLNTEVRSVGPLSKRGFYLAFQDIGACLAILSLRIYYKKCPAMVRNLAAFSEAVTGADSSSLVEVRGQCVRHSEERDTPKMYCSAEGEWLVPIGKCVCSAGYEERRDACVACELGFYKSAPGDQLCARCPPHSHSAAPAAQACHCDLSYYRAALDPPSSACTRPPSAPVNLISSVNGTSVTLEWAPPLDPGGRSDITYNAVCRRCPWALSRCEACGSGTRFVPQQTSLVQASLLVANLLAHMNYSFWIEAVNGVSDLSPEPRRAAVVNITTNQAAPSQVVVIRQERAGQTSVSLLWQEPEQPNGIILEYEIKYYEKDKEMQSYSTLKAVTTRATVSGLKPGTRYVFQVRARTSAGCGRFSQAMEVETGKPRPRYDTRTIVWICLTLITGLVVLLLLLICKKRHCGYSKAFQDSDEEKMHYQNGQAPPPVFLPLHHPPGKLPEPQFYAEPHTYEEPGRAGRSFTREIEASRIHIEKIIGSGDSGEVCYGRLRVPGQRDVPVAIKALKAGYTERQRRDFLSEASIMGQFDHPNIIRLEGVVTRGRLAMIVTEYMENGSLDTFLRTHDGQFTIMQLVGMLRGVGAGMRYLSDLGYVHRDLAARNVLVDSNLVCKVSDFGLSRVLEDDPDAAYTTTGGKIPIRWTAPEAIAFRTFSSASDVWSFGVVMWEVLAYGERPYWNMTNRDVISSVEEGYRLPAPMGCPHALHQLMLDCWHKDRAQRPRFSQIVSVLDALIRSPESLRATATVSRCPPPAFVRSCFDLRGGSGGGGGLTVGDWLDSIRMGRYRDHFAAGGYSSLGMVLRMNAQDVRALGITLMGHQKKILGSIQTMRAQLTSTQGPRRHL
# Summary of the method: as §1
# CDK16/cyclinY(h) = CDK16/cyclinY(h) (Homo sapiens, UniProt Q00536)
# Chain of CDK16/cyclinY(h) (Q00536 whole entry): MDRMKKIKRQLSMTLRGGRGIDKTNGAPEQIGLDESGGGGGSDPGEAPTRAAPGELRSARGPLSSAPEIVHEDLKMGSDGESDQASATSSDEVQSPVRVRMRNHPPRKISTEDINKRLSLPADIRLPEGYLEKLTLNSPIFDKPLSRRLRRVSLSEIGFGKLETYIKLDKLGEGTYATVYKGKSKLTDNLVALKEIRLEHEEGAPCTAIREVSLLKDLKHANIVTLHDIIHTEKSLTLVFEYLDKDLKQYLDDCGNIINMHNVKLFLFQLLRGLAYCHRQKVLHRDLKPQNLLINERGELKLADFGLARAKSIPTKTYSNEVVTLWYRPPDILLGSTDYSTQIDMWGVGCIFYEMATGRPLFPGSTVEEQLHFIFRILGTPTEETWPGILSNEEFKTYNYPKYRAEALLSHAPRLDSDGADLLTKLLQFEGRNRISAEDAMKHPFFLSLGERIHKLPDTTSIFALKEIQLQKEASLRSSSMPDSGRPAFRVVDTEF
# Chain of CDK16/cyclinY(h) (Q8ND76 whole entry partner): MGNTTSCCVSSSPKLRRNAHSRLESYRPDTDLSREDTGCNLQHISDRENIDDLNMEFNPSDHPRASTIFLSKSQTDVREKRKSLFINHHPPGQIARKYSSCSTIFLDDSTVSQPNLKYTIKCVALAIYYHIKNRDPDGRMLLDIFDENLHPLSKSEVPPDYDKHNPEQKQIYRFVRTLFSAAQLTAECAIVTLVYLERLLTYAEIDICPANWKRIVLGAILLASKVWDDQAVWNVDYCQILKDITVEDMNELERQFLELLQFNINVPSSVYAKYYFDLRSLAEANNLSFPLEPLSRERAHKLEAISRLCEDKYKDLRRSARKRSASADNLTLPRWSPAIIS
# Summary of the method: as §1
# [2] = read-out: Residual activity (%) 5ay
# [3] = read-out: Residual activity (%) Spautin-1 5aa
# [4] = read-out: Residual activity (%) 5at
# [5] = read-out: Residual activity (%) 5as
# Chain of Flt4(h) (P35916 whole entry): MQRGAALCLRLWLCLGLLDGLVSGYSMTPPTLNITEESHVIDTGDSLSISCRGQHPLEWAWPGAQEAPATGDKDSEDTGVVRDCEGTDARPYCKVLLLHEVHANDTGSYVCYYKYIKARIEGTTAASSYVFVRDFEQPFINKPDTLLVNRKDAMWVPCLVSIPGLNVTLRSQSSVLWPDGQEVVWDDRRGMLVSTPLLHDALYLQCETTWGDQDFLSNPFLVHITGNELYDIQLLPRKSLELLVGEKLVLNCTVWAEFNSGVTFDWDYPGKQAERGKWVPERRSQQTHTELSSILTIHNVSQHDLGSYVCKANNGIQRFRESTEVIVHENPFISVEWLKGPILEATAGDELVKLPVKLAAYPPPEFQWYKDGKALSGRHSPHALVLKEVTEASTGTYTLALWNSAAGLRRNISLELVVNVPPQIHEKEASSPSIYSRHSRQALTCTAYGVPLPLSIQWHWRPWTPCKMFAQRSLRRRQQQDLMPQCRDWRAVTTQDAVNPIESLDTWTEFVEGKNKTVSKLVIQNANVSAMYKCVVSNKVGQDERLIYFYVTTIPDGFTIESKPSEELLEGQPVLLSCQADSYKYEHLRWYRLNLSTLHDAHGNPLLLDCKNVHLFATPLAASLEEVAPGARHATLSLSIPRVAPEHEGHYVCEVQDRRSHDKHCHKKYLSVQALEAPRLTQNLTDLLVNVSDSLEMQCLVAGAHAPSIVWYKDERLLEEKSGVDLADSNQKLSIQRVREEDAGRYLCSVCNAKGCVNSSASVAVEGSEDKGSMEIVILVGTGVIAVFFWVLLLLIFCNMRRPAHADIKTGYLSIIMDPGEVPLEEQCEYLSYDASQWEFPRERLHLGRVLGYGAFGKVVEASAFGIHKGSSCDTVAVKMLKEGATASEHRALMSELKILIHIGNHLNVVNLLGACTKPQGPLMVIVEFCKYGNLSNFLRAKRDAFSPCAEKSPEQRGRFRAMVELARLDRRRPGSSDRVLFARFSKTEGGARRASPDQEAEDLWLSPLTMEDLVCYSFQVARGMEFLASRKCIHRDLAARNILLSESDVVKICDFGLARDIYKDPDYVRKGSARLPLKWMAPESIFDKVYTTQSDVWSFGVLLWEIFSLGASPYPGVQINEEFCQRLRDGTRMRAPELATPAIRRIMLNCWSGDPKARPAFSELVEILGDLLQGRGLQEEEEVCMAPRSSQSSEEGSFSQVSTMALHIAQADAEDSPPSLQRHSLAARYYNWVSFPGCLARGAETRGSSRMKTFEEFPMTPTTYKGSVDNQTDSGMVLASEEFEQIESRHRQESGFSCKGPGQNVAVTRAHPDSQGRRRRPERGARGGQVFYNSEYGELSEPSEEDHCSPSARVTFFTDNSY
structure (smiles),measurement,setting,value
"COc1ccc2ncnc(Nc3cccc(F)c3)c2c1 [5ay, N-(3-Fluorophenyl)-6-Methoxy-4-Quinazolinamine]",remaining activity at 10 µM,Flt4(h); [2],66%
same,remaining activity at 10 µM,SNRK(h); [2],79%
same,remaining activity at 10 µM,[1]; [2],81%
same,remaining activity at 10 µM,c-RAF(h); [2],102%
same,remaining activity at 10 µM,Wee1(h); [2],102%
same,remaining activity at 10 µM,EphA8(h); [2],84%
same,remaining activity at 10 µM,CDK16/cyclinY(h); [2],81%
"Fc1ccc(CNc2ncnc3ccc(F)cc23)cc1 [5aa, 6-Fluoro-N-(4-fluorobenzyl)-4-Quinazolinamine]",remaining activity at 10 µM,Flt4(h); [3],92%
same,remaining activity at 10 µM,SNRK(h); [3],103%
same,remaining activity at 10 µM,[1]; [3],96%
same,remaining activity at 10 µM,c-RAF(h); [3],110%
same,remaining activity at 10 µM,Wee1(h); [3],109%
same,remaining activity at 10 µM,EphA8(h); [3],87%
same,remaining activity at 10 µM,CDK16/cyclinY(h); [3],90%
"Fc1ccc2ncnc(NCCc3ccc(Cl)cc3)c2c1 [5at, N-[2-(4-Chlorophenyl)Ethyl]-6-Fluoro-4-Quinazolinamine]",remaining activity at 10 µM,Flt4(h); [4],90%
same,remaining activity at 10 µM,SNRK(h); [4],103%
same,remaining activity at 10 µM,[1]; [4],91%
same,remaining activity at 10 µM,c-RAF(h); [4],117%
same,remaining activity at 10 µM,Wee1(h); [4],89%
same,remaining activity at 10 µM,EphA8(h); [4],71%
same,remaining activity at 10 µM,CDK16/cyclinY(h); [4],104%
"Fc1ccc(CCNc2ncnc3ccc(F)cc23)cc1 [5as, 6-Fluoro-N-[2-(4-Fluorophenyl)Ethyl]-4-Quinazolinamine]",remaining activity at 10 µM,Flt4(h); [5],81%
same,remaining activity at 10 µM,SNRK(h); [5],104%
same,remaining activity at 10 µM,[1]; [5],93%
same,remaining activity at 10 µM,c-RAF(h); [5],114%
same,remaining activity at 10 µM,Wee1(h); [5],114%
same,remaining activity at 10 µM,EphA8(h); [5],88%
same,remaining activity at 10 µM,CDK16/cyclinY(h); [5],114%
